Measurements: patent US6583154B1, “Compounds and methods which modulate feeding behavior and related diseases” (Amgen Inc., priority 1998, dated 2003)

How the values were obtained:
pNPY induced feeding = experiment: Icv administration of NPY antagonists against pNPY induced feeding in satiated Long-Evans male rats; assay type: in vivo; conditions: I.C.V. antagonist in DMSO 20 μl, about 15 min later 5 μl pNPY, high sucrose mash, 4 hours post-injection, vehicle 5.29 ± 0.97, * significantly different from vehicle, p < 0.05
Protocol: Protocol for Icv Administration of NPY Antagonists Against pNPY Induced Feeding in Satiated Long-Evans Male Rats
Adult male Long-Evans rats (approx. 275 g) were obtained from Charles River Laboratories (Wilmington, MA) and given one week to acclimate to the animal facility. Animals were housed individually and given ad-lib access to food and water. After acclimation, animals were anesthetized (75 mg/kg Sodium Nembutal) and implanted with 23 g cannulas (Plastics One, Roanoke, VA) into the right lateral cerebral ventricle. All animals were given at least 1 week post-operative recover before any experiment.
Approximately 16 hours prior to injection, animals were provided with access to 30 grams of a sucrose/condensed milk/rat chow mash along with their regular chow. Ninety minutes prior to injections, regular chow was removed from the cages and animals were provided with a fresh portion of the high sucrose mash. Intracerebroventricular injection of antagonist or vehicle was done in awake, unrestrained animals in a DMSO vehicle in a volume of 20 μl. Approximately 15 minutes after the administration of the antagonist or vehicle, animals were given a second 5 μl injection of either water or pNPY. After the second injection, the portion of high sucrose mash was weighed and total food consumed was measured at 2 and 4 hours post-injection.

melting point: 251 to 253 °C (dec.)
SMILES: Cc1nc(N2CCc3ccccc3C2)c2[nH]c(-c3ccccc3)cc2n1 [Example 2]
4 hr food intake (g ± S.E.M.) (pNPY induced feeding): 3.35 ± 0.62* g
